Experimental data reported in ChEMBL document CHEMBL2021855, “Hepatitis C RNA-dependent RNA polymerase inhibitors: a review of structure-activity and resistance relationships; different scaffolds and mutations” (Bioorg Med Chem, 2012).
Each block holds one compound with its values, some of them ahead of it.

Tests used:
[1] = Inhibition of Hepatitis C virus NS5B RNA-dependent RNA polymerase; set-up: species or system Hepacivirus hominis
[2] = Competitive inhibition of Hepatitis C virus NS5B RNA-dependent RNA polymerase; set-up: species or system Hepacivirus hominis
Hepatitis C virus [3] = assay: Inhibition of Hepatitis C virus genotype 1b NS5B RNA-dependent RNA polymerase P495L mutant; set-up: species or system Hepatitis C virus subtype 1b
Hepatitis C virus [4] = assay: Antiviral activity against Hepatitis C virus genotype 1a infected in human HuH7 cells assessed as inhibition of viral replication by replicon assay; assay type: functional, organism-based, Hepacivirus hominis; settings: subtype 1a, Huh-7
Hepatitis C virus [5] = assay: Antiviral activity against Hepatitis C virus genotype 1b infected in human HuH7 cells assessed as inhibition of viral replication by replicon assay; assay type: functional, organism-based, Hepacivirus hominis; settings: Huh-7
[6] = Cytotoxicity against human HuH7 cells; assay type: cell-based, Huh-7
[7] = Half life in human liver microsomes
[8] = Half life in monkey liver microsomes; settings: rhesus monkey
[9] = Inhibition of Hepatitis C virus genotype 1 NS5B RNA-dependent RNA polymerase
Hepatitis C virus [10] = assay: Antiviral activity against Hepatitis C virus genotype 1a assessed as inhibition of viral replication by replicon assay; assay type: functional, organism-based, Hepacivirus hominis; settings: subtype 1a
Hepatitis C virus [11] = assay: Antiviral activity against Hepatitis C virus genotype 1b assessed as inhibition of viral replication by replicon assay; assay type: functional, organism-based, Hepacivirus hominis
Hepatitis C virus [12] = assay: Inhibition of Hepatitis C virus con1 NS5B RNA-dependent RNA polymerase; set-up: species or system Hepacivirus hominis
Hepatitis C virus [13] = assay: Inhibition of Hepatitis C virus con1 NS5B RNA-dependent RNA polymerase C316Y mutant; set-up: species or system Hepacivirus hominis
Hepatitis C virus [14] = assay: Antiviral activity against Hepatitis C virus assessed as inhibition of viral replication by replicon assay; assay type: functional, organism-based, Hepacivirus hominis
Hepatitis C virus [15] = assay: Inhibition of Hepatitis C virus genotype 1b NS5B RNA-dependent RNA polymerase; set-up: species or system Hepatitis C virus subtype 1b
Hepatitis C virus [16] = assay: Inhibition of Hepatitis C virus genotype 1b NS5B RNA-dependent RNA polymerase M423 mutant; set-up: species or system Hepatitis C virus subtype 1b

IC50 [1]: 350 nM
Structure (SMILES): CO[C@@H]1[C@H](O)[C@@H](CO)O[C@H]1n1ccc2c(O)nc(N)nc21

IC50 [1]: 3800 nM
Structure (SMILES): CO[C@@H]1[C@H](O)[C@@H](CO)O[C@H]1n1cnc2c(O)nc(N)nc21

IC50 [1]: 80 nM
Structure (SMILES): Nc1nc2c(ncn2[C@@H]2O[C@H](CO)C[C@H]2O)c(=O)[nH]1

EC50 [1]: 3500 nM
Structure (SMILES): C[C@@]1(O)[C@H](O)[C@@H](CO)O[C@H]1n1cnc2c(=O)[nH]c(N)nc21 [2'-B-METHYL-GUANOSINE]

IC50 [1]: 80 nM
Structure (SMILES): Nc1nc(O)c2ccn([C@@H]3O[C@H](CO)C[C@H]3O)c2n1

IC50 [1]: 80 nM
Structure (SMILES): Nc1ncnc2c1ccn2[C@@H]1O[C@H](CO)C[C@H]1O

IC50 [1]: 80 nM
Structure (SMILES): Nc1ccn([C@@H]2O[C@H](CO)C[C@H]2O)c(=O)n1

IC50 [1]: 1200 nM
Structure (SMILES): CO[C@@H]1[C@H](O)[C@@H](CO)O[C@H]1n1ccc(N)nc1=O

The remaining lines, values behind:

Structure (SMILES): [N-]=[N+]=N[C@]1(CO)O[C@@H](n2ccc(N)nc2=O)[C@H](O)[C@@H]1O [4'-AZIDOCYTIDINE]
Ki [2]: 40 nM

Structure (SMILES): O=C(O)c1ccc2c(c1)nc(-c1ccc(OCc3cc(N4CCCC4=O)ccc3-c3ccc(Cl)cc3)cc1F)n2C1CCCCC1
IC50 (Hepatitis C virus [3]): 1500 nM

Structure (SMILES): CS(=O)(=O)Nc1ccc2c(c1)S(=O)(=O)N=C(C1=C(O)[C@@H]3[C@H]4CC[C@H](C4)[C@@H]3N(Cc3ccc(F)cc3)C1=O)N2 [SETROBUVIR]
EC50 (Hepatitis C virus [4]): 52 nM
EC50 (Hepatitis C virus [5]): 3 nM
CC50 [6]: 100000 nM
half-life [7]: > 1 h
half-life [8]: > 1 h

Structure (SMILES): CNC(=O)c1c(-c2ccc(F)cc2)oc2cc(N(CCO)S(C)(=O)=O)c(C3CC3)cc12 [NESBUVIR]
IC50 [9]: 10 nM
EC50 (Hepatitis C virus [10]): 5 nM
EC50 (Hepatitis C virus [11]): 9 nM
IC50 (Hepatitis C virus [12]): 0.8 nM
IC50 (Hepatitis C virus [13]): 2160 nM

Structure (SMILES): O=C(O)/C=C/c1ccc(NC(=O)CNC(=O)c2ccc3c(c2)nc(-c2ccoc2)n3C2CCCCC2)cc1
IC50 [1]: 280 nM

Structure (SMILES): C[C@@]1(O)[C@H](O)[C@@H](CO)O[C@H]1n1cc(F)c2c(N)ncnc21
EC50 (Hepatitis C virus [14]): 70 nM

Structure (SMILES): C[C@H]1CC[C@H](C(=O)N(c2cc(-c3ccccc3)sc2C(=O)O)[C@H]2CC[C@H](O)CC2)CC1
IC50 (Hepatitis C virus [15]): 17 nM
IC50 (Hepatitis C virus [16]): 450 nM

Structure (SMILES): COC[C@H]1C[C@@](Cn2cccn2)(C(=O)O)N(C(=O)c2ccc(C(C)(C)C)c(OC)c2)[C@H]1c1nccs1 [GSK-625433]
EC50 (Hepatitis C virus [10]): 290 nM
EC50 (Hepatitis C virus [11]): 2 nM

Structure (SMILES): O=C(O)/C=C/c1ccc(NC(=O)C2(NC(=O)c3ccc4c(c3)nc(-c3ccoc3)n4C3CCCCC3)CCCC2)cc1
EC50 (Hepatitis C virus [14]): 72 nM
IC50 [1]: 95 nM
